Reference: patent publication US20140094424A1, “MICROBICIDAL COMPOSITIONS AND METHODS OF PRODUCTION USE THEREOF” (priority 2011, published 2014)

Key:
[1] = Dissolution of antibiotic in Wash NEXT reagent; format: physicochemical; conditions: 1% in Wash NEXT base pool
[2] = system: creatinine biosensor (creatinine amidohydrolase, creatinine amidinohydrolase and sarcosine oxidase); experiment: Effect on enzymatic activity of a creatinine biosensor (rate of O2% decrease); format: biochemical; conditions: 40 mM propionate, FIG. 2
Experimental: In FIG. 1, the effects of various concentrations of gentamicin on the enzymatic activity of a creatinine biosensor (comprising the three enzymes creatinine amidohydrolase, creatinine amidinohydrolase and sarcosine oxidase) were determined. In FIG. 2, the effects of various concentrations of propionate on the enzymatic activity of a creatinine biosensor (comprising three enzymes) were determined.
In both instances, a decreasing rate of O2% is an indicator of enzyme activity; the faster the rate of O2% decrease, the higher enzymatic activity is.

Row | Structure (SMILES) | dissolution in the Wash reagent [1] | effect on enzymatic activity of the three enzymes in the creatinine biosensor [2]
1 | CO[C@@H]1[C@@H](OC(N)=O)[C@@H](O)[C@H](Oc2ccc3c(O)c(NC(=O)c4ccc(O)c(CC=C(C)C)c4)c(=O)oc3c2C)OC1(C)C [novobiocin] | neither antibiotic completely dissolved in the Wash reagent | –
2 | CCC(=O)O [propionate] | – | did not substantially affect the enzymatic activity
